Laboratory results: US20240150306A1, “COMPOUNDS WITH CLEAVABLE DISULFIDE MOIETIES” (REINVIGORON THERATECH, INC., priority 2022, published 2024)

How the values were obtained:
[1] = test system: 4T1 murine breast cancer cells; assay: Cell viability / cytotoxicity detection (ONE-Glo+Tox); type: cell-based
Experimental: (§1) 4T1 murine breast cancer cells were seeded into white 96-well plate with the density of 1×10^4 cells per well. After 24 h, cells were replaced by 180 μL fresh RPMI 1640 medium (10% FBS), and 20 μL mRNA-Luc or Luc-pDNA encapsulated CLLM Nanoparticle formulations were added with fixed 100 ng mRNA or 200 ng pDNA per well. Free mRNA-Luc or Luc-pDNA were used as the control. Cells were further incubated for 24 h and ONE-Glo+Tox kits were used for mRNA expression and cytotoxicity detection based on the standard protocol.

[2] = test system: 4T1 murine breast cancer cells; assay: In vitro luciferase expression (ONE-Glo+Tox); type: cell-based; settings: 100 ng mRNA or 200 ng pDNA per well, 24 h, FIGS. 11 and 12
Experimental: as §1

Q: CCCCCCCCCCCCCCOC(=O)CCN(CCSSCCN(C)C)CCC(=O)OCCCCCCCCCCCCCC [CLLM-2] was tested. Which “tolerability of drug delivery (mRNA nanoparticle formulations)” value ([1]; 100 ng mRNA in 200 uL medium per well, FIG. 11) did it give?
A: Its value is “tolerated”.

Q: What about the “tolerability of drug delivery (pDNA nanoparticle formulations)” value ([1]; 200 ng pDNA in 200 uL medium per well, FIG. 12) of the same compound?
A: Its value is “tolerated”.

Q: And the “luciferase expression / delivery of mRNA and pDNA into cells” value [2]?
A: Its value is “can deliver mRNA and pDNA into cells”.
